Experimental data taken from publication PMC4941945 (Current protocols in pharmacology / editorial board, S.J. …, 2015).
pKi: −log10 of the molar value. Like-named read-outs stand apart in the source and are kept apart here.

Assays:
sigma-1 receptor (S1R) = details: read-out: KI S1R, cited from earlier work
sigma-2 receptor (S2R) = details: read-out: KI S2R, cited from earlier work
S1R knockout mice = details: ref Fontanilla et al., 2009; cited from earlier work
S1R + S2R = test: Saturation binding of [3H]-DTG in rat liver; details: RL membranes
[1] = ref 1 Matsumoto RR et al. (1995) EJP 280: 301-310
[2] = ref 2 Fontanilla D et al. (2009) Science 323(5916): 934-937
[3] = ref 8 Husbands SM et al (1997) J Med Chem 40:4340-4346

## CN(C)CCN(C)CCc1ccc(Cl)c(Cl)c1 [BD1047]
sigma-1 receptor (S1R); [1]
  pKi: 9.03
sigma-2 receptor (S2R); [1]
  pKi: 7.33

## CN1CCN(CCc2ccc(Cl)c(Cl)c2)CC1 [BD1063]
sigma-1 receptor (S1R); [1]
  pKi: 8.04
sigma-2 receptor (S2R); [1]
  pKi: 6.35

## CN(C)CCc1c[nH]c2ccccc12 [Dimethyltryptamine, N,N-dimethyltryptamine]
sigma-1 receptor (S1R); [2]
  pKi: 4.83
sigma-2 receptor (S2R); [2]
  pKi: 4.66
S1R knockout mice
  response in a behavioral assay measuring motor coordination: failed to respond

## O=C(OCCN1CCOCC1)C1(c2ccccc2)CCCCC1 [PRE-084]
sigma-2 receptor (S2R); ref 6 Maurice T. et al. (1999) Br J Pharmacol 127(2): 335-342
  pKi: 4.88

## C[C@@H]1CN(CCCn2c3ccccc3c3ccccc32)C[C@H](C)N1 [Rimcazole]
sigma-1 receptor (S1R); [3]
  pKi: […]
sigma-2 receptor (S2R); [3]
  pKi: 6.41

## Cc1ccccc1NC(=N)Nc1ccccc1C [[^3H]-DTG, [^3H]-1,3-di(2-tolyl)guanidine]
S1R + S2R; measured [3H]-DTG concentration 0.25 nM
  S1R + S2R Binding, Specific Binding: 0.44 pmol/mg
S1R + S2R; measured [3H]-DTG concentration 0.8 nM
  S1R + S2R Binding, Specific Binding: 0.94 pmol/mg
S1R + S2R; measured [3H]-DTG concentration 2.7 nM
  S1R + S2R Binding, Specific Binding: 2.21 pmol/mg
S1R + S2R; measured [3H]-DTG concentration 9 nM
  S1R + S2R Binding, Specific Binding: 6.52 pmol/mg
S1R + S2R; measured [3H]-DTG concentration 27 nM
  S1R + S2R Binding, Specific Binding: 11.36 pmol/mg
S1R + S2R; measured [3H]-DTG concentration 92 nM
  S1R + S2R Binding, Specific Binding: 18.55 pmol/mg
S1R + S2R; measured [3H]-DTG concentration 310 nM
  S1R + S2R Binding, Specific Binding: 20.14 pmol/mg
